The results in this text go back to US20090176841A1, “NOVEL 6-5 SYSTEM BICYCLIC HE[…] ITS PHAR[…]” (Sanwa Kagaku Kenkyusho Co., Ltd., priority 2006, published 2009).

By IC50 is commonly meant the concentration at which inhibition is half-maximal.

The target in test [1] is T1, recombinant human TRα (Homo sapiens, UniProt P10827).
T1 sequence (P10827 190-410 isoform P10827-2): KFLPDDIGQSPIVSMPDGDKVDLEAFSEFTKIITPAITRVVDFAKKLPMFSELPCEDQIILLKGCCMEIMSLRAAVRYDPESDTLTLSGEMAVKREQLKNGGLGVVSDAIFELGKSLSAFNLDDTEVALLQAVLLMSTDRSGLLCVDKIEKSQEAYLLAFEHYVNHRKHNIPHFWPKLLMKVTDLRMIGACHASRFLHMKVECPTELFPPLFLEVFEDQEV
The test is described as follows: biochemical. Particulars: TR[…] (IC50, nM), displacement of 125I-T3 (0.16 nM). An excerpt:
(§1) Thyroid Hormone Receptor Binding Test
(§2) (1) Preparation of Fused Protein Having Ligand Binding Region of Thyroid Hormone Receptor
(§3) Human TRα and human TRβ ligand binding domains were expressed in Escherichia coli as a fused protein (recombinant human TRα or recombinant human TRβ) having TRα and TRβ ligand binding domains at a C-terminus of His-Patch Thioredoxin using the His-Patch Thioredoxin fusing protein expressing system (Invitrogen).
(§4) A nucleotide sequence of a region corresponding to the fused protein was confirmed by DNA sequence analysis.
(§5) Escherichia coli by which the fused protein had been subjected to expression inducement were collected by a centrifugation method, and ground using ultrasound to prepare a ground cell liquid containing the fused protein. The ground cell liquid was centrifuged at 15000 rpm for about 30 minutes, and a solution containing the fused protein from the supernatant using a nickel chelating column was obtained. An NAP-10 column was replaced with a binding solution (20 mM, Tris-HCl, 0.15 M NaCl, 8% Glycerol, 0.1% BSA, 1 mM EDTA, 10 mM 2-melcaptethanol). The resulting binding solution containing the fused protein was frozen and stored at −70° C. or lower.
(§6) (2) Binding Affinity for Thyroid Hormone Receptor
(§7) This binding solution (60 μL) was added to all wells of a 96-well plate (MILLIPORE MultiScreen-HV, Cat. No. MANVN4550, Lot. No. F4SN86613). […] 80 μL of SephadexG25 was added to each well of MultiScreen-HV (MILLIPORE, Cat. No. MANVN4550, Lot. No. F4SN86613), the binding solution was added to sufficiently swell, and this was centrifuged at 600×g for 1 minute to prepare a column of SephadexG25. […] Again, 25 μL untreated binding solution was overlaid on the SephadexG25 column, and this was immediately centrifuged at 600×g for 1 minute. […] As an amount of recombinant human TRα or recombinant human TRβ used in the present test, an amount by which proper radioactivity is obtained in a range where an addition amount of the receptor and an amount of the complex in the above test system, was used.
(§8) This was divided by the total complex amount to calculate a binding rate as the following equation:
(§9) Binding rate=remaining complex amount/total complex amount
In general terms: In a radioligand displacement assay an active substance lowers the binding of a labelled ligand.

In test [2] the target is T2, recombinant human TRβ (Homo sapiens, UniProt P10828).
T2 sequence (P10828 244-461): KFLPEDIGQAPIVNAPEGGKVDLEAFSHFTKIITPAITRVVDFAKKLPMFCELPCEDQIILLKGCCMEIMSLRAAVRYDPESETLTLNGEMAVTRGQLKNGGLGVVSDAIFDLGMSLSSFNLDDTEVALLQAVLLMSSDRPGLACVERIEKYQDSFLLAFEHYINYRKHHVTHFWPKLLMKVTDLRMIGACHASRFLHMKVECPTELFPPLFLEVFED
The experiment in a line: biochemical. The conditions noted are these: TR[…] (IC50, nM), displacement of 125I-T3 (0.16 nM).
Description: as §1, §2, §3, §4, §5, §6, §7, §8, §9

As for `Cc1ccc(NC(=O)CC(=O)O)c2cc(C)n(Cc3ccc(O)c4ccccc34)c12` [Example 115], the results for the IC50 in test [1] and in test [2] were 3600 nM and 130 nM, respectively.

Regarding `CC(C)c1cc(Cn2ccc3c(NC(=O)C(=O)O)cc(Br)cc32)ccc1O` [Example 120], the IC50 in test [1] amounted to 380 nM; in test [2], 63 nM.

`Cc1ccc(NC(=O)CC(=O)O)c2cc(C)n(Cc3ccc(O)c(Br)c3)c12` [Example 65]: the values for the IC50 in test [1] and in test [2] were greater than 10000 nM and 470 nM, respectively.

Regarding `Cc1ccc(NC(=O)Cc2nnn[nH]2)c2cc(C)n(Cc3ccc(O)c(C(C)C)c3)c12` [Example 43], the IC50 in test [1] amounted to 450 nM; in test [2], 8.5 nM.

Regarding `CCOC(=O)C(=O)Nc1cccc2c1ccn2Cc1ccc(O)c(C(C)C)c1` [Example 1, Ethyl N-[1-(4-hydroxy-3-isopropylbenzyl)-1H-indol-4-yl]oxamate], the IC50 in test [1] turned out to be 1500 nM; in test [2], 220 nM.

Regarding `Cc1cc2c(NC(=O)C(=O)O)cccc2n1Cc1ccc(O)c(C(C)C)c1` [Example 72], the results for the 50% inhibitory concentration (IC50) in test [1] and in test [2] were 230 nM and 40 nM, respectively.

`Cc1ccc(NC(=O)CC(=O)O)c2cc(C)n(Cc3ccc(O)c(Cc4ccc(F)cc4)c3)c12` [Example 100]: the IC50 came to 600 nM in test [1] and 28 nM in test [2].

For `Cc1ccc(NC(=O)CC(=O)O)c2cc(C)n(Cc3ccc(O)c(C(O)c4ccc(F)cc4)c3)c12` (single isomer, unassigned; (-)) [Example 131, (−)-N-(1-{3-[(4-fluorophenyl)hydroxymethyl]-4-hydroxybenzyl}-2,7-dimethyl-1H-indol-4-yl)malonamic acid], the IC50 came to 99 nM in test [1] and 7.1 nM in test [2].

As for `Cc1cc2c(NC(=O)CC(=O)O)cccc2n1Cc1ccc(O)c(C(C)C)c1` [Example 73], the IC50 in test [1] is 5100 nM; in test [2] it was 210 nM.

`CCOC(=O)C(=O)Nc1ccc(C)c2c1cc(C)n2Cc1ccc(O)c(C(C)C)c1` [Example 21]: the IC50 in test [1] worked out at 37 nM; in test [2], 6.3 nM.

Regarding `Cc1ccc(NCCC(=O)O)c2ccn(Cc3ccc(O)c(C(C)C)c3)c12` [Example 82], the IC50 came out at 1600 nM in test [1] and 1100 nM in test [2].

Turning to `Cc1cc(Cn2ccc3c(NC(=O)C(=O)O)ccc(C)c32)cc(C)c1O` [Example 103], the IC50 in test [1] amounted to 3200 nM; in test [2], 860 nM.

For `CCc1cc2c(NC(=O)C(=O)O)cccc2n1Cc1ccc(O)c(C(C)C)c1` [Example 118], the IC50 in test [1] was determined as 280 nM; in test [2], 91 nM.

As for `CC(C)c1cc(Cn2ccc3c(NC(=O)C(=O)O)cccc32)ccc1O` [Example 63, N-[1-(4-hydroxy-3-isopropylbenzyl)-1H-indol-4-yl]oxamic acid], the IC50 in test [1] is 1200 nM; in test [2] it was 170 nM.

For the compound `CCCc1cc(Cn2c(C)cc3c(NC(=O)C(=O)O)ccc(C)c32)ccc1O` [Example 116], the IC50 in test [1] came out at 52 nM; in test [2], 9.2 nM.

On to `Cc1cc(NC(=O)C(=O)O)cc2ccn(Cc3ccc(O)c(C(C)C)c3)c12` [Example 108], for which the IC50 worked out at 190 nM in test [1] and 54 nM in test [2].

Regarding `Cc1ccc(NC(=O)CC(=O)O)c2cc(C(F)(F)F)n(Cc3ccc(O)c(C(C)C)c3)c12` [Example 95], the IC50 in test [1] worked out at 98 nM; in test [2], 5 nM.

As to `CCC(C)c1cc(Cn2c(C)cc3c(NC(=O)CC(=O)O)ccc(C)c32)ccc1O` (stereo not shown) [Example 123], the values for the IC50 in test [1] and in test [2] were 170 nM and 9.4 nM, respectively.

On to `CCOC(=O)C(=O)Nc1ccc(C)c2c1ccn2Cc1ccc(O)c(C(C)C)c1` [Example 15], for which the results for the IC50 in test [1] and in test [2] were 490 nM and 60 nM, respectively.

As for `Cc1ccc(NC(=O)C(F)C(=O)O)c2cc(C)n(Cc3ccc(O)c(C(C)C)c3)c12` (stereo not shown) [Example 88], the IC50 worked out at 120 nM in test [1] and 13 nM in test [2].

As for `CC(C)c1cc(Cn2c(C(F)(F)F)cc3c(NC(=O)C(=O)O)cccc32)ccc1O` [Example 119], the values for the IC50 in test [1] and in test [2] were 57 nM and 15 nM, respectively.

With `Cc1ccc(NC(=O)C(=O)O)c2ccn(Cc3ccc(O)c(C(C)C)c3)c12` [Example 79], the IC50 in test [1] amounted to 5200 nM; in test [2], 130 nM.

In the case of `CCOC(=O)C(=O)Nc1cccc2c1cc(C)n2Cc1ccc(O)c(C(C)C)c1` [Example 8], the IC50 in test [1] came to 370 nM; in test [2], 72 nM.

In the case of `Cc1ccc(NC(=O)C(=O)O)c2cc(C)n(Cc3ccc(O)c(C(F)(F)F)c3)c12` [Example 114], the IC50 is 180 nM in test [1] and 49 nM in test [2].

In the case of `CC(C)c1cc(Cn2ccc3c(NC(=O)CC(=O)O)cc(Br)cc32)ccc1O` [Example 77], the figures for the IC50 in test [1] and in test [2] were greater than 10000 nM and 570 nM, respectively.

On to `CCc1cc2c(NC(=O)Cc3nnn[nH]3)cccc2n1Cc1ccc(O)c(C(C)C)c1` [Example 41], for which the IC50 in test [1] is greater than 10000 nM; in test [2] it was 650 nM.

`CC(C)c1cc(Cn2c(C(F)(F)F)cc3c(NC(=O)CC(=O)O)cccc32)ccc1O` [Example 76]: the IC50 in test [1] came out at 610 nM; in test [2] it was 67 nM.

With `Cc1ccc(NC(=O)C(=O)O)c2cc(C)n(Cc3ccc(O)c(Cc4ccc(F)cc4)c3)c12` [Example 125], the IC50 in test [1] stood at 66 nM; in test [2], 8.7 nM.

On to `Cc1ccc(NC(=O)CCC(=O)O)c2cc(C)n(Cc3ccc(O)c(C(C)C)c3)c12` [Example 93], for which the IC50 in test [1] is 650 nM; in test [2], 260 nM.

As for `CC(C)c1cc(Cc2c[nH]c3c(NC(=O)CC(=O)O)cccc23)ccc1O` [Example 113], the IC50 in test [1] was greater than 10000 nM; in test [2], 320 nM.

Regarding `Cc1ccc(NC(=O)C(=O)O)c2cc(C)n(Cc3ccc(O)c(CCc4ccccc4)c3)c12` [Example 101], the IC50 in test [1] came to 2200 nM; in test [2], 390 nM.

For the compound `Cc1cc2c(OCC(=O)O)cccc2n1Cc1ccc(O)c(C(C)C)c1` [Example 74], the values for the IC50 in test [1] and in test [2] were 2700 nM and 200 nM, respectively.

Turning to `CCc1cc2c(NC(=O)CC(=O)O)cccc2n1Cc1ccc(O)c(C(C)C)c1` [Example 75], the IC50 is greater than 10000 nM in test [1] and 550 nM in test [2].

Turning to `CCOc1cc(Cn2c(C)cc3c(NC(=O)C(=O)O)ccc(C)c32)ccc1O` [Example 126], the IC50 in test [1] was determined as 1900 nM; in test [2], 320 nM.

As to `CCOC(=O)C(=O)Nc1cccc2c1c(C)c(C)n2Cc1ccc(O)c(C(C)C)c1` [Example 19], the IC50 in test [1] is 280 nM; in test [2] it was 56 nM.

For the compound `Cc1cc(NC(=O)CC(=O)O)cc2ccn(Cc3ccc(O)c(C(C)C)c3)c12` [Example 109], the IC50 was greater than 10000 nM in test [1] and 600 nM in test [2].

`CC(C)c1cc(Cn2ccc3c(NC(=O)CC(=O)O)cccc32)ccc1O` [Example 69]: the figures for the IC50 in test [1] and in test [2] were greater than 10000 nM and 430 nM, respectively.

As for `CC(C)c1cc(Cn2ncc3c(NC(=O)C(=O)O)cccc32)ccc1O` [Example 111], the IC50 was greater than 10000 nM in test [1] and 1400 nM in test [2].

Take `Cc1ccc(NC(=O)Cc2nnn[nH]2)c2ccn(Cc3ccc(O)c(C(C)C)c3)c12` [Example 42]: the results for the IC50 in test [1] and in test [2] were 8200 nM and 150 nM, respectively.

Regarding `CC(C)c1cc(Cn2ccc3cc(NC(=O)C(=O)O)ccc32)ccc1O` [Example 105], the results for the IC50 in test [1] and in test [2] were 970 nM and 260 nM, respectively.

Consider `Cc1ccc(NC(=O)C(C)C(=O)O)c2cc(C)n(Cc3ccc(O)c(C(C)C)c3)c12` (stereo not shown) [Example 89], for which the values for the concentration for half-maximal inhibition (IC50) in test [1] and in test [2] were 870 nM and 120 nM, respectively.

As to `Cc1ccc(NC(=O)C(=O)O)c2cc(C)n(Cc3ccc(O)c(C(C)C)c3)c12` [Example 85], the IC50 came to 24 nM in test [1] and 3.1 nM in test [2].

Turning to `CCCc1cc(Cn2c(C)cc3c(NC(=O)CC(=O)O)ccc(C)c32)ccc1O` [Example 117], the IC50 came out at 640 nM in test [1] and 36 nM in test [2].

In the case of `CC(C)c1cc(Cn2ccc3c(NC(=O)CC(=O)O)ccc(Cl)c32)ccc1O` [Example 78], the IC50 in test [1] came to 230 nM; in test [2], 36 nM.
